Measurements as given in patent US20240374535A1, “COMPOSITIONS AND METHODS FOR TREATING BIOFILM DISORDERS AND INFECTIONS” (AHV International B.V., priority 2021, published 2024).
pIC50: −log10 of the molar value. Where two headings read alike, the source gives them in different places.

Experiments:
[1] = system: Staphylococcus epidermis ATCC 35984; test: MIC assay (planktonic growth inhibition, OD600); type: cell-based, S. epidermidis; settings: for pIC50: read-out: S. epidermidis MIC50; for IC90: read-out: S. epidermidis MIC90
Protocol: (§1) The exact weighed amount was noted and the volume of solvent to reach a 80 mM dilution calculated. Half of the volume was added first, by adding Tween 80. In a second step, the other half of the volume DMSO was added and the closed tube inverted 5-10 times and then vortexed very thoroughly for at least 30 seconds. If after this procedure unsolved material was still visible, the tube was placed in a shaker at 37° C. at 150 rpm for at least 30 minutes. […] For the MBEC assay (method 1.3) the solution needs to be diluted to a final concentration of 2 mM in 0.9% saline solution and then further diluted to 1 mM, 0.5 mM, 0.25 mM and 0.125 mM in saline. Those dilutions were added as treatment to the 96 well plates with the grown biofilm (see method 3).
(§2) Frozen aliquots of Staphylococcus epidermis ATCC 35984 and Pseudomonas aeruginosa ATCC 27853 were used to inoculate a tryptic soy agar (TSA) plate and incubated overnight at 37° C. After incubation 3-5 well-isolated colonies with the same morphology were selected from the TSA plate and resuspended in 2 mL 0.9% saline solution with 3-6 glass beads and vortexed. The optical density at 600 nm (OD600) of the bacterial suspension was measured with a spectrophotometer (Evolution™ 201/220 UV-Visible Spectrophotometer, Thermo Fisher Scientific) and diluted to an OD600 of 0.0008, which resembles 10^6 CFU/mL.
(§3) The MIC assay was performed in a flat-bottom 96-microtiter plate. 50 μL of MHB-II was added into columns 2-11, and 100 μL to column 12 for sterility control. 100 μL of the 8 mM test compound solution (method 1) was added to column 1. A two-fold dilution series of the solution in MHB-II was achieved by resuspending 50 μL of the 8 mM solution from column 1 to column 2. This step was repeated until column 10. The respective concentration of Tween 80 and DMSO in column 1 was 2.5%, which is two-fold diluted throughout the plate. 50 μL of the bacterial suspension was added to column 1-11. The microtiter plates were sealed with adhesive polyethylene film for sealing microplates (Diversified Biotech) and incubated for 24 h at 37° C. After incubation the OD was measured at 600 nm with the Varioskan (Thermo Fisher Scientific). […] This assay was repeated three times in three independent experiments.

[2] = system: Pseudomonas aeruginosa ATCC 27853; test: MIC assay (planktonic growth inhibition, OD600); type: cell-based, P. aeruginosa; settings: for pIC50 / IC90: Pseudomonas aeruginosa; for pIC50: read-out: P. aeruginosa MIC50; for IC90: read-out: P. aeruginosa MIC90
Protocol: as §1, §2, §3

[3] = system: Staphylococcus epidermis ATCC 35984 biofilm; test: MBEC assay (biofilm eradication, CFU log reduction); type: cell-based, S. epidermidis; settings: for minimal effective concentration: read-out: S. epidermidis MBEC mM with log reduction ≥1
Protocol: as §1
(§4) Frozen aliquots of Staphylococcus epidermis ATCC 35984 and Pseudomonas aeruginosa ATCC 27853 were used to inoculate 20 mL of Tryptic Soy Broth (TSB) in a 100 mL Erlenmeyer flask at 37° C. and 150 rpm and incubated overnight (Infors). The OD600 of the overnight culture was measured with a spectrophotometer (Evolution™ 201/220 UV-Visible Spectrophotometer, Thermo Fisher Scientific) and diluted to an OD600 of 0.2, which resembles 10^8 CFU/mL. The cell suspension of OD600=0.2 was seeded into a U-bottom-shaped 96 well plates by pipetting 100 μL per well in column 1-11, column 12 was filled with 100 μL medium as sterility control. The 96 well plates were sealed with adhesive polyethylene film for sealing microplates and incubated for 48 h at 37° C. at static conditions. After the biofilm growth phase, 100 μL of treatment solutions (method 1) were added to the vials resulting in treatment concentrations of 1 mM, 0.5 mM, 0.25 mM and 0.125 mM and with the respective concentration of Tween 80 and DMSO each at 0.63%, 0.32%, 0.16% and 0.08%. The same concentration was applied to four different wells of the same bacterial strain, resulting in four replicates for each concentration and strain. The treatment was incubated for 20 h at 37° C. at static conditions. After the treatment the supernatant was carefully removed and the well with the biofilm washed carefully for one time with 200 μL 0.9% saline solution. 200 μL saline solution was added and the biofilm was resuspended thoroughly. When fully homogenized then 20 μL was used for the first dilution in 180 μL 0.9% saline solution, which was prepared in a second plate. This dilution was continued until dilution step 10E−5 and 100 μL of the 10E−4 and 10E−5 dilution plated on a TSA plate. The TSA plates were incubated at 37° C. for 24 h. The colonies on the plates were enumerated, the colony forming units per mL of the dispensed biofilm and averages thereof and the log reduction in comparison with the untreated sample from the same wells plate calculated. Reduction of colony forming units goes hand in hand with the thickness of the biofilm and thus with the number bacteria that are present in the biofilm. Therefore, a significant reduction of colony forming units in the biofilm was defined at the value of log reduction ≥1 or more. This assay was repeated two times in two independent experiments)

[4] = system: Pseudomonas aeruginosa ATCC 27853 biofilm; test: as above; type: cell-based, P. aeruginosa; settings: for minimal effective concentration: Pseudomonas aeruginosa, read-out: P. aeruginosa MBEC mM with log reduction ≥1
Protocol: as §1, §4

[5] = minimal concentration reducing final OD600 by 50%, 24 h at 37° C.
[6] = minimal concentration reducing final OD600 by 90%, 24 h at 37° C.
[7] = 48 h grown biofilm, 20 h treatment, CFU log reduction vs untreated
[8] = ATCC27853, minimal concentration reducing final OD600 by 50%, 24 h at 37° C.
[9] = ATCC27853, minimal concentration reducing final OD600 by 90%, 24 h at 37° C.
[10] = ATCC27853, 48 h grown biofilm, 20 h treatment, CFU log reduction vs untreated

## CCSSCC [Di-ethyl disulfide]
[1]; 24 h
  pIC50: < 2.40
  IC90: > 4 mM
[2]; ATCC27853, 24 h
  pIC50: < 2.40
  IC90: > 4 mM
[3]; 20 h
  minimal effective concentration: > 1 mM
[4]; ATCC27853, 20 h
  minimal effective concentration: > 1 mM

## O=S(=O)(Cc1ccccc1)SCc1ccccc1 [Di-benzyl thiosulfonate]
[1]; [5]
  S. epidermidis MIC50: 2000 µM
[1]; [6]
  S. epidermidis MIC90: 4000 µM
[2]; [5]
  P. aeruginosa MIC50: 4000 µM
[2]; [6]
  P. aeruginosa MIC90: >4000 µM
[3]; [7]
  S. epidermidis MBEC mM with log reduction ≥1: 0.125 mM
[4]; [7]
  P. aeruginosa MBEC mM with log reduction ≥1: 0.125 mM

## CCCSS(=O)(=O)c1ccc(C)cc1 [S-propyl-4-methylbenzene thiosulfonate]
[1]; [5]
  S. epidermidis MIC50: 60 µM
[1]; [6]
  S. epidermidis MIC90: 130 µM
[2]; [5]
  P. aeruginosa MIC50: 60 µM
[2]; [6]
  P. aeruginosa MIC90: 60 µM
[3]; [7]
  S. epidermidis MBEC mM with log reduction ≥1: 0.5 mM
[4]; [7]
  P. aeruginosa MBEC mM with log reduction ≥1: >1 mM

## Bis(4-Fluorophenyl) thiosulfonate [Bis (4-fluorophenyl) thiosulfonate]
[1]; [5]
  S. epidermidis MIC50: 250 µM
[1]; [6]
  S. epidermidis MIC90: 2000 µM
[2]; [5]
  P. aeruginosa MIC50: 2000 µM
[2]; [6]
  P. aeruginosa MIC90: 2000 µM
[3]; [7]
  S. epidermidis MBEC mM with log reduction ≥1: >1 mM
[4]; [7]
  P. aeruginosa MBEC mM with log reduction ≥1: >1 mM

## Bis(4-fluorophenyl) thiosulfinate [Bis (4-fluorophenyl) thiosulfinate]
[1]; [5]
  S. epidermidis MIC50: 125 µM
[1]; [6]
  S. epidermidis MIC90: 250 µM
[2]; [5]
  P. aeruginosa MIC50: 1000 µM
[2]; [6]
  P. aeruginosa MIC90: 4000 µM
[3]; [7]
  S. epidermidis MBEC mM with log reduction ≥1: >1 mM
[4]; [7]
  P. aeruginosa MBEC mM with log reduction ≥1: >1 mM

## CCCCCCSSCCCCCC [Di-n-hexyl disulfide]
[1]; [5]
  pIC50: < 2.40
[1]; [6]
  IC90: > 4 mM
[2]; [8]
  pIC50: < 2.40
[2]; [9]
  IC90: > 4 mM
[3]; [7]
  minimal effective concentration: > 1 mM
[4]; [10]
  minimal effective concentration: > 1 mM

## CSSC [Di-methyl disulfide]
[1]; 24 h
  pIC50: < 2.40
  IC90: > 4 mM
[2]; ATCC27853, 24 h
  pIC50: < 2.40
  IC90: > 4 mM
[3]; 20 h
  minimal effective concentration: > 1 mM
[4]; ATCC27853, 20 h
  minimal effective concentration: > 1 mM

## CCCCCCCCCCSSCCCCCCCCCC [Di-n-decyl disulfide]
[1]; [5]
  pIC50: < 2.40
[1]; [6]
  IC90: > 4 mM
[2]; [8]
  pIC50: < 2.40
[2]; [9]
  IC90: > 4 mM
[3]; [7]
  minimal effective concentration: > 1 mM
[4]; [10]
  minimal effective concentration: > 1 mM

## Bis(4-Chlorophenyl) thiosulfonate [Bis (4-chlorophenyl) thiosulfonate]
[1]; [5]
  S. epidermidis MIC50: 30 µM
[1]; [6]
  S. epidermidis MIC90: 60 µM
[2]; [5]
  P. aeruginosa MIC50: 250 µM
[2]; [6]
  P. aeruginosa MIC90: 2000 µM
[3]; [7]
  S. epidermidis MBEC mM with log reduction ≥1: >1 mM
[4]; [7]
  P. aeruginosa MBEC mM with log reduction ≥1: >1 mM

## Di-isopropyl thiosulfonate
[1]; [5]
  S. epidermidis MIC50: 2000 µM
[1]; [6]
  S. epidermidis MIC90: 2000 µM
[2]; [5]
  P. aeruginosa MIC50: 2000 µM
[2]; [6]
  P. aeruginosa MIC90: 2000 µM
[3]; [7]
  S. epidermidis MBEC mM with log reduction ≥1: >1 mM
[4]; [7]
  P. aeruginosa MBEC mM with log reduction ≥1: >1 mM

## c1coc(CSSCc2ccco2)c1 [Di-furfuryl disulfide]
[1]; [5]
  pIC50: 2.70
[1]; [6]
  IC90: > 4 mM
[2]; [8]
  pIC50: 2.70
[2]; [9]
  IC90: > 4 mM
[3]; [7]
  minimal effective concentration: > 1 mM
[4]; [10]
  minimal effective concentration: > 1 mM
